Experimental data published in patent publication US7713994B2 (Wyeth LLC, priority 2005, dated 2010).
Read-outs that look alike come from different tables or passages of the source.

Columns and labels:
Format in all cases: biochemical
cyclin B/CDK1 enzyme = biological target: T1, cyclin B/CDK1 enzyme (Homo sapiens, UniProt P06493); experiment: CDK1 ELISA kinase assay (phospho-Rb ser 795 detection)
T1 construct: purchased New England BioLabs; host or cells: Sf9 insect cells, recombinant baculovirus
T1 sequence (P06493 whole entry): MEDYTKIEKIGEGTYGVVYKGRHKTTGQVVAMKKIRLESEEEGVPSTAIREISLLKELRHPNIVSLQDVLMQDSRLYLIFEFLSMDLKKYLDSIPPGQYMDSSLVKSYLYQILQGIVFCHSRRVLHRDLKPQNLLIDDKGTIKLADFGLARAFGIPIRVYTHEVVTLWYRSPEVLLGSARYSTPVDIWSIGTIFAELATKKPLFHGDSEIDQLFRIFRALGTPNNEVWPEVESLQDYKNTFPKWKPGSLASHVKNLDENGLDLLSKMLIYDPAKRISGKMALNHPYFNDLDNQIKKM
T1 sequence (P14635 whole entry partner): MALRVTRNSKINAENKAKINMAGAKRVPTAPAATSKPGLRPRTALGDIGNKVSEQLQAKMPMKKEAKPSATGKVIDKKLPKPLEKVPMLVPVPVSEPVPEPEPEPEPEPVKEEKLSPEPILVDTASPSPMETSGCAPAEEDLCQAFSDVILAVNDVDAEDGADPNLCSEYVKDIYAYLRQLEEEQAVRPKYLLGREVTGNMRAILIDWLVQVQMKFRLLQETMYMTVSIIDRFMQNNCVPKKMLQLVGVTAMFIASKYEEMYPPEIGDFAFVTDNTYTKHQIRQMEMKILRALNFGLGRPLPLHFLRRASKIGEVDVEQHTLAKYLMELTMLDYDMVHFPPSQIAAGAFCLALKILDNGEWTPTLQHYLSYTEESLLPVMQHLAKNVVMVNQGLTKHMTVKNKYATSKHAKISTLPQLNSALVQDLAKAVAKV
Protocol: (§1) • 1. High-binding ELISA microtiter plates (Costar) were coated with 40 μl of the kinase substrate (GST fusion of C-terminal fragment of the retinoblastoma susceptibility gene product) diluted to 10 μg/ml in tris-buffered saline (TBS), overnight at 4° C. • 2. Non-specific binding sites were blocked for 1 hour at 4° C. with Superblock in TBS (Pierce), and the plates rinsed with water. • 3. For the screen, 1.5 μl of test compound (200 μg/ml stock in 20% DMSO/20 mM HEPES, pH 7.5) was added to each well. Final dose of the test compound in the assay was 10 ug/ml. […] The kinase reaction (30 μl) was dispensed into each well. Reactions contained 200 μM ATP, 0.5 mg/ml bovine serum albumin (BSA; Sigma), and 0.5 μl partially purified cyclin D1/cdk 4 enzyme*. The enzyme complex is expressed in insect cells (Sf9) infected with recombinant baculovirus and partially purified using ammonium sulfate fractionation. Reaction volumes were adjusted to 30 μl with kinase assay buffer (50 mM HEPES, pH 7.5, 10 mM MgCl2, 5% glycerol, 10 mM 2-mercaptoethanol). • *: For CDK2 assay, 1.0 μl cyclin E/CDK2 enzyme (diluted 1:1000 in kinase assay buffer) was used. The enzyme is isolated from insect cells (Sf9) infected with recombinant baculovirus and partially purified using ammonium sulfate fractionation. For CDK1 assay, 0.08 μl cyclin B/CDK1 enzyme [New England BioLabs; the enzyme is isolated from insect cells (Sf9) infected with recombinant baculovirus carrying human cdc 2 and human cyclin B] was used.
(§2) […] • 5. Plates were incubated at 30° C. for 1 hour. • 6. The reaction mixture was removed by aspiration and replaced with 250 μl TBS containing 0.1% Tween-20 and 5% nonfat dry milk (blocking buffer). The plates were incubated at 4° C. for 1 hour. • 7. The blocking buffer was removed and replaced with 50 μl of the primary antibody [anti-phospho-Rb ser 795 (New England BioLabs) diluted 1:1000 in blocking buffer]. Incubation was at 4° C. for 16-20 hours. • 8. The wells were rinsed 3 times with 250 μl of TBS containing 0.1% Tween-20 followed by the addition of 50 μl of secondary antibody [anti-rabbit IgG conjugated to horseradish peroxidase (Amersham Life Science) diluted 1:1000 in blocking buffer]. • 9. After a 1 hour incubation at room temperature, the wells were rinsed 3 times with 250 μl of TBS/0.1% Tween 20. • 10. TMB (3,3′,5,5′-tetramethylbenzidine dihydrochloride) substrate solution (100 μl; Pierce) was added to each well and the color development reaction allowed to proceed 5-10 minutes at room temperature with shaking. The reaction was stopped by the addition of 2N sulfuric acid (100 μl) and the absorbance values read at 450 nm in a microplate reader (Molecular Devices). Analysis of Results: • 1. The percentage of the absorbance value in wells containing the test compound relative to control wells (no test agent) was determined. • 2. IC50 values of selected compounds were determined from inhibition curves, after subtracting background values (no substrate).

cyclin D1/cdk 4 enzyme = biological target: T2, cyclin D1/cdk 4 enzyme (Homo sapiens, UniProt P11802); experiment: CDK4 ELISA kinase assay (phospho-Rb ser 795 detection)
T2 construct: made in house; host or cells: Sf9 insect cells, recombinant baculovirus
T2 sequence (P11802 whole entry, species assumed): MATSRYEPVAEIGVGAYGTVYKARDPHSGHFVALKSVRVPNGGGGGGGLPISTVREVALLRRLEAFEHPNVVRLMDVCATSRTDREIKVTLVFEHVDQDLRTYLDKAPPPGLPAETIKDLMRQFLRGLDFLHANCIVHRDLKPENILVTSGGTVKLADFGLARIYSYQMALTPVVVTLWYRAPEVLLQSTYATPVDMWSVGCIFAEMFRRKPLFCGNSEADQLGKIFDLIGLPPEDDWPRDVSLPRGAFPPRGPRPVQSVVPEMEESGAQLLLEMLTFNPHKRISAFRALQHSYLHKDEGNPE
T2 sequence (P24385 whole entry partner, species assumed): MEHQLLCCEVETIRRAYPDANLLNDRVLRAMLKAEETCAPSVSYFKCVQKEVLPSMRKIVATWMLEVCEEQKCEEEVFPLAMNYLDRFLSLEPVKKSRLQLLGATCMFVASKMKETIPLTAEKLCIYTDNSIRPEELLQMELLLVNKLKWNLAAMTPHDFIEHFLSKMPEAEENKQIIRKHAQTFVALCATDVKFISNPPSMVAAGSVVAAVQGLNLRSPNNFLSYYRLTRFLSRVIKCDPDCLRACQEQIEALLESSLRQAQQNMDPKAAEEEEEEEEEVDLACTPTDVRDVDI
In short: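 Sf9-derived cyclin/CDK, 200 μM ATP, immobilized GST-Rb; 30° C/1 h. Detection: phospho-Ser795 Ab, HRP, TMB, OD450.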

cyclin E/CDK2 enzyme = biological target: T3, cyclin E/CDK2 enzyme (Homo sapiens, UniProt P24941); experiment: CDK2 ELISA kinase assay (phospho-Rb ser 795 detection)
T3 construct: made in house; host or cells: Sf9 insect cells, recombinant baculovirus
Protocol: as §1, §2

[1] = In Vitro Enzyme Assay, cyclin B/CDK1, read-out: CDK1 IC50
[2] = In Vitro Enzyme Assay, cyclin D1/cdk 4, read-out: CDK4 IC50
[3] = In Vitro Enzyme Assay, cyclin E/CDK2, read-out: CDK2 IC50
[4] = In Vitro Enzyme Assays, read-out: CDK1 IC50
[5] = In Vitro Enzyme Assays, 200 μM ATP, read-out: CDK4 IC50
[6] = In Vitro Enzyme Assays, read-out: CDK2 IC50

Compound	IC50 (cyclin B/CDK1 enzyme; [1]) [µM]	IC50 (cyclin D1/cdk 4 enzyme; [2]) [µM]	IC50 (cyclin E/CDK2 enzyme; [3]) [µM]	IC50 (cyclin B/CDK1 enzyme; [4]) [µM]	IC50 (cyclin D1/cdk 4 enzyme; [5]) [µM]	IC50 (cyclin E/CDK2 enzyme; [6]) [µM]
CC(=O)c1ccc(-c2ccc3c(c2)C(=CNCc2ccc(O)c(O)c2)C(=O)NC3=O)cc1 [Example 775, 6-(4-Acetyl-phenyl)-4-[(3,4-dihydroxy-benzylamino)-methylene]-4H-isoquinoline-1,3-dione]	> 50	0.2	14.1	–	–	–
NS(=O)(=O)c1ccc(CNC=C2C(=O)NC(=O)c3ccc(C=Cn4ccnc4)cc32)cc1 [Example 658, 4-({[6-(2-Imidazol-1-yl-vinyl)-1,3-dioxo-2,3-dihydro-1H-isoquinolin-4-ylidenemethyl]-amino}-methyl)-benzenesulfonamide]	> 50	0.19	23.1	–	–	–
NS(=O)(=O)c1ccc(CNC=C2C(=O)NC(=O)c3ccc(C=Cc4ccncc4)cc32)cc1 [Example 653, 4-({[1,3-Dioxo-6-(2-pyridin-4-yl-vinyl)-2,3-dihydro-1H-isoquinolin-4-ylidenemethyl]-amino}-methyl)-benzenesulfonamide]	> 50	0.21	45.5	–	–	–
CCN(CC)CCn1ccc(-c2ccc3c(c2)C(=CNc2ccc(N4CCN(C)CC4)cc2)C(=O)NC3=O)c1 [Example 854, 6-[1-(2-Diethylamino-ethyl)-1H-pyrrol-3-yl]-4-{[4-(4-methyl-piperazin-1-yl)-phenylamino]-methylene}-4H-isoquinoline-1,3-dione]	> 50	0.61	> 50	–	–	–
O=C1NC(=O)c2ccccc2C1=CNC(Cc1ccc(O)c(O)c1)C(=O)O (stereo not drawn) [Example 567, 3-(3,4-Dihydroxy-phenyl)-2-[(1,3-dioxo-2,3-dihydro-1H-isoquinolin-4-ylidenemethyl)-amino]-propionic acid]	17.7	11.9	16.2	–	–	–
O=C1NC(=O)c2ccc(Br)cc2/C1=C/NCc1ccc(O)c(O)c1 [Example 40, (4Z)-6-Bromo-4-{[(3,4-dihydroxybenzyl)amino]methylene}isoquinoline-1,3(2H,4H)-dione]	–	–	–	> 50	0.04	> 50
O=C1NC(=O)c2ccc(C=Cc3ccncc3)cc2C1=CNCc1ccc(O)c(O)c1 [Example 663, 4-[(3,4-Dihydroxy-benzylamino)-methylene]-6-(2-pyridin-4-yl-vinyl)-4H-isoquinoline-1,3-dione]	> 50	0.01	6.3	–	–	–
COc1ccc(CN/C=C2\C(=O)NC(=O)c3ccc(Cl)cc32)cc1O [Example 67, (4Z)-6-Chloro-4-{[(3-hydroxy-4-methoxybenzyl)amino]methylene}isoquinoline-1,3(2H,4H)-dione]	–	–	–	> 50	0.23	> 50
(4Z)-6-Bromo-4-{[(3-hydroxy-4-methoxybenzyl)amino)methylene}isoquinoline-1,3(2H,4H-dione [Example 50]	–	–	–	> 50	0.03	> 50
O=C(O)CCc1ccc(-c2ccc3c(c2)C(=CNCc2ccc(O)c(O)c2)C(=O)NC3=O)cc1 [Example 819, 3-(4-{4-[(3,4-Dihydroxy-benzylamino)-methylene]-1,3-dioxo-1,2,3,4-tetrahydro-isoquinolin-6-yl}-phenyl)-propionic acid]	27.1	0.81	27.1	–	–	–
CCCOc1ccc(CN/C=C2\C(=O)NC(=O)c3ccc(Br)cc32)cc1C(=O)O [Example 352, 5-({[(Z)-(6-Bromo-1,3-dioxo-2,3-dihydroisoquinolin-4(1H)-ylidene)methyl]amino}methyl)-2-propoxybenzoic acid]	–	–	–	22.6	1.9	12
CN1CCN(c2ccc(NC=C3C(=O)NC(=O)c4ccc(-c5ccn(CC(N)=O)c5)cc43)cc2)CC1 [Example 853, 2-[3-(4-{[4-(4-Methyl-piperazin-1-yl)-phenylamino]-methylene}-1,3-dioxo-1,2,3,4-tetrahydro-isoquinolin-6-yl)-pyrrol-1-yl]-acetamide]	> 50	0.12	> 50	–	–	–
N#Cc1ccc(-c2ccc3c(c2)C(=CNCc2ccc(S(N)(=O)=O)cc2)C(=O)NC3=O)cc1 [Example 755, 4-({[6-(4-Cyano-phenyl)-1,3-dioxo-2,3-dihydro-1H-isoquinolin-4-ylidenemethyl]-amino}-methyl)-benzenesulfonamide]	12.3	0.57	7.7	–	–	–
O=C(O)C=Cc1cccc(-c2ccc3c(c2)C(=CNCc2ccc(O)c(O)c2)C(=O)NC3=O)c1 [Example 789, 3-(3-{4-[(3,4-Dihydroxy-benzylamino)-methylene]-1,3-dioxo-1,2,3,4-tetrahydro-isoquinolin-6-yl}-phenyl)-acrylic acid]	> 50	0.4	27.7	–	–	–
O=C1NC(=O)c2ccc(-c3ccc(C(=O)O)cc3)cc2C1=CNCc1ccc(O)c(O)c1 [Example 770, 4-{4-[(3,4-Dihydroxy-benzylamino)-methylene]-1,3-dioxo-1,2,3,4-tetrahydro-isoquinolin-6-yl}-benzoic acid]	18.5	0.09	13.8	–	–	–
Nc1cc(CN/C=C2\C(=O)NC(=O)c3ccc(Br)cc32)cc(O)c1O [Example 204, (4Z)-4-{[(3-Amino-4,5-dihydroxybenzyl)amino]methylene}-6-bromoisoquinoline-1,3(2H,4H)-dione]	–	–	–	> 50	0.22	7
N#CCc1ccc(NC=C2C(=O)NC(=O)c3ccccc32)cc1 [Example 555, {4-[(1,3-Dioxo-2,3-dihydro-1H-isoquinolin-4-ylidenemethyl)-amino]-phenyl}-acetonitrile]	45	14.7	21.3	–	–	–
CN1CCN(c2ccc(NC=C3C(=O)NC(=O)c4ccc(-c5ccc6c(ccn6CC(N)=O)c5)cc43)cc2)CC1 [Example 851, 2-[5-(4-{[4-(4-Methyl-piperazin-1-yl)-phenylamino]-methylene}-1,3-dioxo-1,2,3,4-tetrahydro-isoquinolin-6-yl)-indol-1-yl]-acetamide]	2.7	0.79	10.3	–	–	–
O=C(O)C=Cc1ccc(-c2ccc3c(c2)C(=CNCc2ccc(O)c(O)c2)C(=O)NC3=O)cc1 [Example 788, 3-(4-{4-[(3,4-Dihydroxy-benzylamino)-methylene]-1,3-dioxo-1,2,3,4-tetrahydro-isoquinolin-6-yl}-phenyl)-acrylic acid]	17.6	0.2	17.6	–	–	–
O=C1NC(=O)c2ccccc2C1=CNc1ccc(O)c(C(=O)O)c1 [Example 563, 5-[(1,3-Dioxo-2,3-dihydro-1H-isoquinolin-4-ylidenemethyl)-amino]-2-hydroxy-benzoic acid]	18.5	8.2	15.1	–	–	–
O=C1NC(=O)c2ccc(Br)cc2C1=CNc1ccc(-c2cccnc2)cc1 [Example 349, 6-Bromo-4-[(4-pyridin-3-yl-phenylamino)-methylene]-4H-isoquinoline-1,3-dione]	–	–	–	> 50	37.1	36.3
N=C(N)c1ccc(NC=C2C(=O)NC(=O)c3ccccc32)cc1 [Example 547, 4-[(1,3-Dioxo-2,3-dihydro-1H-isoquinolin-4-ylidenemethyl)-amino]-benzamidine]	> 50	13.2	6.6	–	–	–
